Assays:
8 cancer cell lines = assay: Classification of drugs by Apotracker Red (apoptosis) and CellTrace Violet (proliferation) staining; format: cell-based; conditions: 8 cell lines, 24 h treatment, single-dose screen
Method: To corroborate the versatility of Apotracker Red, we built a screening platform including a total of 8 cancer cell lines of variable origin and pathogenesis: breast (MCF7, MDA‐MB231 and MMTV‐PyMT (mouse mammary tumour virus‐polyoma middle tumour‐antigen)[23]), lung (A549), prostate (PC3 and LnCap), blood cells (Jurkat) and colon (HT29). All cell lines were cultured under standard conditions and seeded with the fluorescent proliferation marker CellTrace^TM Violet (CV) in 96‐well plates (10–20×10^3 cells/well) for high‐throughput flow cytometry. After drug treatment (i.e., drug addition plus 24 h incubation), Apotracker Red was incubated for 10 min and fluorescence readings were directly acquired without any additional processing steps (Figure 3 a). […] Using this platform, we tested a collection of FDA‐approved drugs in all cancer cell lines and compared their ability to induce apoptosis using Apotracker Red as the reporter. Specifically, we included DNA alkylation agents (e.g., cyclophosphamide, cisplatin, 5‐fluorouracil, gemcitabine, temozolomide), proteasomal and mitotic inhibitors (e.g., bortezomib, docetaxel, paclitaxel) and antagonists of specific proteins (e.g., dexamethasone, tamoxifen; Figure 3 b).
(§1) First, all drugs were tested in the 8 different cell lines to determine the percentages of Apotracker Red‐stained apoptotic cells compared to no treatment (Figure 3 c; Figure S8). […] All 5 drugs were tested at multiple concentrations (from 1 to 100 μM) and with incubation times up to 48 h to examine whether drugs could block cell proliferation at late stages (Figures S9–S13).
Figure S8. Heatmap of relative inhibition of cell proliferation (as indicated by staining of CellTraceTM Violet) after treatment of cancer cell lines with different drugs. Data presented as an average of 3 independent experiments. Cells were stained on day 0 with CellTraceTM Violet (1 µM) and mean fluorescence intensities were determined on the 5L LSR after 24 h of treatment with the different drugs.
(1 picture or pasted object on this page, not shown here) […]
Cell culture. MCF-7, A549, LnCap, MDA-MB-231, Jurkat T cells and PC3 cells were obtained from American Type Culture Collection (ATCC). HT29 cells were purchased from Merck (S i g m a Aldrich, UK). Mouse Mammary Tumour Virus –Polyoma Middle T antigen (MMTV -PyMT) cells were provided by the lab of Mikala Egeblad (CSHL, US). MMTV-PyMT, MCF-7, LnCap, MDA-MB-231 and Jurkat T cells were cultured in Roswell Park Memorial Institute (RPMI) 1640 Medium supplemented with 10% fetal bovine serum (FBS) , 100 U mL-1 penicillin and 0.1 mg mL-1 streptomycin. A549 and PC3 cells were cultured in Dublecco’s modified Eagle’s medium (DMEM) supplemented with 10% fetal bovine serum (FBS), 100 U mL-1 penicillin and 0.1 mg […]
Flow cytometry drug screen.

[1] = system: breast cancer cells (MMTV-PyMT, MDA-MB231, MCF7); assay: Dose-dependency study with Apotracker Red and CellTrace Violet; format: cell-based, mouse and human; conditions: 1 to 100 µM
Method: as §1, with “S8). […] From this screen, we decided to select 5 drugs with potent pro‐apoptotic response in breast cancer, the most diagnosed cancer worldwide.[25] […] From group 2, we selected cyclophosphamide, tamoxifen, and 5‐fluorouracil as pro‐apoptotic molecules.” for “S8).”
Figure 4 Apotracker Red detects dose‐dependent chemotherapeutic‐induced apoptosis in mouse and human breast cancer cell lines. Cells were plated with 1 μM CV, treated with increasing concentrations (0, 1, 3, 10, 30 and 100 μM) of selected drugs for 48 h, and stained with Apotracker Red (150 nM) before data acquisition. Drugs: tamoxifen (beige), cisplatin (black), 5‐fluorouracil (green), gemcitabine (pink) and cyclophosphamide (red). Data presented as mean±SEM of 3 independent experiments.
Figure S9. Flow cytometry analysis of cisplatin in different breast cancer cell lines.
Representative flow cytometric plots (from three independent experiments) of MMTV-PyMT cells (a), MDA-MB231 cells (b) and MCF7 cells (c) after treatment with increasing concentrations of cisplatin for 48 h. Cells were stained on day 0 with CellTraceTM Violet (1 µ M) and with Apotracker Red (150 nM) before data acquisition.
(1 picture or pasted object on this page, not shown here)
Edinburgh. Human peripheral blood neutrophils were isolated as previously described.[3] […]
were centrifuged (300 g, 5 min, r.t.), washed once with PBS before addition of 0.05% Trypsin, 0.02% ethylenediaminetetraacetic acid (EDTA) in Hank’s balanced salt solution (HBSS) and incubation at 37°C for 5 min. […] Histograms and mean fluorescence intensities of […]

SMILES: N.N.[Cl][Pt][Cl] [cisplatin]
- Drug group by Apotracker Red (apoptosis) and CV (proliferation) staining (8 cancer cell lines): induced apoptosis and decreased cell proliferation
- Percentages of Apotracker Red staining, dose-dependency study ([1]; 48 h, Apotracker Red 150 nM, 3 independent experiments): highest percentages of Apotracker Red staining across all breast cancer cells
- Ratios of proliferation blockage, dose-dependency study ([1]; up to 48 h, CellTrace Violet 1 µM): highest ratios of proliferation blockage
